This is an account of results in patent publication US9642833B2, “Vitamin C and vitamin K, and compositions thereof for treatment of osteolysis or prolongation of prosthetic implant” (IC-MEDTECH CORPORATION, priority 2009, dated 2017).

The series deals with HS68 fibroblasts. The experiment in a line: MTT cytotoxicity against human dermal fibroblasts. Format: cell-based. Particulars: for VK3 CD50: in combination with Sodium L-Ascorbate; for CD50: vitamins alone.

`CC1=CC(=O)c2ccccc2C1=O` [VK3, vitamin K3]: the “VK3 CD50” value reads like this: (ratio of vitamin C to vitamin K3 100, incubation 1 day) 4.7 µM; (ratio of vitamin C to vitamin K3 100, incubation 2 days) 4.7 µM; (ratio of vitamin C to vitamin K3 100, incubation 3 days) 4.7 µM; (ratio of vitamin C to vitamin K3 200, incubation 1 day) 2.3 µM; (ratio of vitamin C to vitamin K3 200, incubation 2 days) 2.3 µM; (ratio of vitamin C to vitamin K3 200, incubation 3 days) 2.0 µM. The CD50 is, setting by setting: (incubation 1 day) 18.7 µM; (incubation 2 days) 19.0 µM; (incubation 3 days) 18.7 µM.
With `O=C1O[C@H]([C@@H](O)CO)C([O-])=C1O.[Na+]` [Sodium L-Ascorbate, sodium L-ascorbate], the “VC CD50” value is, setting by setting: (in combination with VK3, ratio of vitamin C to vitamin K3 100, incubation 1 day) 458 µM; (in combination with VK3, ratio of vitamin C to vitamin K3 100, incubation 2 days) 471 µM; (in combination with VK3, ratio of vitamin C to vitamin K3 100, incubation 3 days) 471 µM; (in combination with VK3, ratio of vitamin C to vitamin K3 200, incubation 1 day) 466 µM; (in combination with VK3, ratio of vitamin C to vitamin K3 200, incubation 2 days) 467 µM; (in combination with VK3, ratio of vitamin C to vitamin K3 200, incubation 3 days) 397 µM. Moreover, the CD50 runs as follows: (incubation 1 day) 1468 µM; (incubation 2 days) 1245 µM; (incubation 3 days) 1185 µM.
